Test results taken from patent US10934302B1, “SHP2 phosphatase inhibitors and methods of use thereof” (Relay Therapeutics, Inc., priority 2018, dated 2021).

Biological target: SHP2 (Homo sapiens (Human), UniProt Q06124)
Test: SHP2 allosteric inhibition assay (DiFMUP prompt fluorescence)
Assay type: biochemical
Conditions: 0.25 nM SHP2 activated with 0.5 μM peptide IRS1_pY1172(dPEG8)pY1222; substrate DiFMUP

Row | SMILES | IC50 [nM]
1 | CN(C)C(=O)c1ccc2c(c1)[C@@H](N)C1(CCN(c3cnc4c(N5CCCc6ncccc65)n[nH]c4n3)CC1)C2 [Example 27] | ≤ 50
2 | Cn1cc(-c2ccc3c(n2)CCCN3c2n[nH]c3nc(N4CCC5(CC4)Oc4ccccc4[C@H]5N)cnc23)cn1 [Example 60] | ≤ 50
3 | Cc1c(Sc2ccnc(N)c2Cl)nc2sc(N3CCC4(CC3)Cc3ccccc3[C@H]4N)nn12 [Example 223] | ≤ 50
4 | Nc1nccc(Sc2cnc(N3CCC4(CC3)Cc3c(F)cccc3[C@H]4N)cn2)c1Cl [Example 139, (S)-1′-(5-((2-amino-3-chloropyridin-4-yl)thio)pyrazin-2-V)-4-fluoro-1,3-dihydrospiro[indene-2,4′-piperidin]-1-amine] | ≤ 50
5 | N[C@H]1c2ccccc2C[C@]12CC[C@H](c1ccc(Sc3ccnc(Cl)c3Cl)nc1)CC2 [Example 280, (1s,1′R,4S)-4-(6-((2,3-dichloropyridin-4-yl)thio)pyridin-3-yl)-1′,3′-dihydrospiro[cyclohexane-1,2′-inden]-1′-amine] | ≤ 50
6 | Nc1nccc(Sc2ccc(N3CCC4(CC3)Oc3cc(F)ccc3[C@H]4N)cn2)c1Cl [Example 224] | 50 to 1000
7 | N[C@@H]1c2ccccc2CC12CCN(c1cc(OC(F)F)c3nccn3c1)CC2 [Example 202] | ≤ 50
8 | Cc1nc2c(ccn2C2=CCOCC2)nc1N1CCC2(CC1)Cc1ccccc1[C@H]2N [Example 193, (3S)-1′-[5-(3,6-dihydro-2H-pyran-4-yl)-3-methyl-5H-pyrrolo[2,3-b]pyrazin-2-yl]-1,3-dihydrospiro[indene-2,4′-piperidin]-3-amine] | ≤ 50
9 | NC1c2ccccc2CC12CCC(c1cnc(SCC3CC3)cn1)CC2 (single isomer, unassigned) [Example 283, (1s, 3'S, 4R)-4-{5-[(cyclopropylmethyl)sulfanyl]pyrazin-2-yl}-1′,3′-dihydrospiro[cyclohexane-1,2′-inden]-3′-amine] | > 10000
10 | N[C@H]1c2ccccc2OC12CCN(c1cnc3c(N4CCCc5ncccc54)n[nH]c3n1)CC2 [Example 118, (S)-1′-(3-(3,4-dihydro-1,5-naphthyridin-1(2H)-yl)-1H-pyrazolo[3,4-b]pyrazin-6-yl)-3H-spiro[benzofuran-2,4′-piperidin]-3-amine] | ≤ 50
11 | N[C@@H]1c2ccccc2CC12CCN(c1ncc(N3CCCc4ccccc43)nc1CO)CC2 [Example 212, {3-[(3S)-3-amino-1,3-dihydrospiro[indene-2,4′-piperidin]-1′-yl]-6-(1,2,3,4-tetrahydroquinolin-1-yl)pyrazin-2-yl}methanol] | ≤ 50
12 | N[C@@H]1c2ccccc2OC12CCN(c1cnc3c(N4CCCc5ncccc54)n[nH]c3n1)CC2 [Example 119, (R)-1′-(3-(3,4-dihydro-1,5-naphthyridin-1(2H)-yl)-1H-pyrazolo[3,4-b]pyrazin-6-yl)-3H-spiro[benzofuran-2,4′-piperidin]-3-amine] | ≤ 50
13 | Cn1cc(-c2ccc3c(n2)CCCN3c2n[nH]c3nc(N4CCC5(CC4)Cc4cccnc4C5N)cnc23)cn1 (centres unmarked) [Example 46] | ≤ 50
14 | Nc1nccc(Sc2cnc(N3CCC4(CC3)Cc3ccccc3[C@H]4N)nc2)c1Cl [Example 93] | ≤ 50
15 | N[C@@H]1c2ccccc2CC12CCN(c1ncc(N3CCCCc4ccccc43)nc1CO)CC2 [Example 214, (S)-(3-(1-amino-1,3-dihydrospiro[indene-2,4′-piperidin]-1′-yl)-6-(2,3,4,5-tetrahydro-1H-benzo[b]azepin-1-yl)pyrazin-2-yl)methanol] | ≤ 50

More lines, now with the values ahead:

Row | IC50 [nM] | SMILES
16 | ≤ 50 | N#Cc1cccc2c1[C@@H](N)C1(CCN(c3cnc4c(N5CCCc6ncccc65)n[nH]c4n3)CC1)C2 [Example 105, (3S)-3-amino-1′-[3-(1,2,3,4-tetrahydro-1,5-naphthyridin-1-yl)-1H-pyrazolo[3,4-b]pyrazin-6-yl]-1,3-dihydrospiro[indene-2,4′-piperidine]-4-carbonitrile]
17 | ≤ 50 | N[C@@H]1c2ccccc2CC12CCN(c1cnc(OCC3CC3)cn1)CC2 [Example 171, (3S)-1′-[5-(cyclopropylmethoxy)pyrazin-2-yl]-1,3-dihydrospiro[indene-2,4′-piperidin]-3-amine]
18 | ≤ 50 | Cn1nccc1-c1cc(N2CCC3(CC2)Cc2ccccc2[C@H]3N)cn2ccnc12 [Example 201]
19 | > 10000 | N[C@@H]1c2ccccc2CC12CCN(c1cnc(N3CCCC[C@H]3c3ccccc3)cn1)CC2 (racemic) [Example 176]
20 | ≤ 50 | Nc1nc(N2CCC3(CC2)Cc2ccccc2[C@H]3N)cnc1-c1cccc(Cl)c1Cl [Example 22, (3S)-1′-[6-amino-5-(2,3-dichlorophenyl)pyrazin-2-yl]-1,3-dihydrospiro[indene-2,4′-piperidin]-3-amine]
21 | ≤ 50 | N[C@@H]1c2ccccc2CC12CCN(c1cnc(N3CCCC[C@@H]3c3ccccc3)cn1)CC2 (racemic) [Example 166, (S)-1′-(5-((R)-2-phenylpiperidin-1-yl)pyrazin-2-yl)-1,3-dihydrospiro[indene-2,4′-piperidin]-1-amine]
22 | ≤ 50 | N[C@H]1c2ccccc2CC12CCN(c1cnc3c(-c4cccc5ncccc45)n[nH]c3n1)CC2 [Example 69]
23 | 50 to 1000 | CS(=O)(=O)c1cccc2c1CCCN2c1n[nH]c2nc(N3CCC4(CC3)Cc3ccccc3[C@H]4N)c(CO)nc12 [Example 98, {6-[(3S)-3-amino-1,3-dihydrospiro[indene-2,4′-piperidin]-1′-yl]-3-(5-methanesulfonyl-1,2,3,4-tetrahydroquinolin-1-yl)-1H-pyrazolo[3,4-b]pyrazin-5-yl}methanol]
24 | ≤ 50 | N[C@@H]1c2ccccc2CC12CCN(c1nc3[nH]nc(N4CCCCC4)c3nc1C1CC1)CC2 [Example 255, (3S)-1′-[5-cyclopropyl-3-(piperidin-1-yl)-1H-pyrazolo[3,4-b]pyrazin-6-yl]-1,3-dihydrospiro[indene-2,4′-piperidin]-3-amine]
25 | 50 to 1000 | Nc1nccc(Sc2ccc(N3CCC4(CC3)Cc3ccccc3[C@H]4N)cn2)c1Cl [Example 97]
26 | ≤ 50 | Nc1nccc(Oc2cnc(N3CCC4(CC3)Cc3ccccc3[C@H]4N)cn2)c1Cl [Example 133, (3S)-1′-{5-[(2-amino-3-chloropyridin-4-yl)oxy]pyrazin-2-yl}-1,3-dihydrospiro[indene-2,4′-piperidin]-3-amine]
27 | 50 to 1000 | Cn1cnc2c(N3CCC4(CC3)Cc3ccccc3[C@H]4N)ncnc21 [Example 184]
28 | ≤ 50 | Nc1nc(N2CCC3(CC2)Cc2ccccc2[C@@H]3N)cnc1-c1cccc(Cl)c1Cl [Example 21, (3R)-1′-[6-amino-5-(2,3-dichlorophenyl)pyrazin-2-yl]-1,3-dihydrospiro[indene-2,4′-piperidin]-3-amine]
29 | 1000 to 10000 | N[C@@H]1c2ccccc2CC12CCN(c1cnc3c(Sc4ccnc(Cl)c4Cl)n[nH]c3n1)CC2 [Example 91]
30 | ≤ 50 | Cc1cc(-c2cccnc2)c(C)c(N2CCC3(CC2)Cc2ccccc2[C@H]3N)n1 [Example 294, (3S)-1′-{3′,6′-dimethyl-[3,4′-bipyridin]-2′-yl}-1,3-dihydrospiro[indene-2,4′-piperidin]-3-amine]
31 | ≤ 50 | Cn1ncc2c1CC1(CCN(c3cnc4c(N5CCCc6ncccc65)n[nH]c4n3)CC1)[C@@H]2N [Example 110]
32 | ≤ 50 | N[C@@H]1c2ccccc2OC12CCN(c1cnc3c(N4CCCc5nc(-c6ncco6)ccc54)n[nH]c3n1)CC2 [Example 61]
